Assay: xn = mol fraction of the nth substance listed
Conditions: for surface tension liquid-gas: Pendant drop shape; for viscosity: 101 kPa, Liquid, Concentric cylinders viscometry

COS(=O)(=O)[O-].Cn1cc[n+](C)c1 [1,3-dimethylimidazolium methylsulfate] + CCCCCO
Conditions | surface tension liquid-gas, 298.15 K [mN/m] | surface tension liquid-gas, 303.15 K [mN/m] | surface tension liquid-gas, 308.15 K [mN/m] | surface tension liquid-gas, 313.15 K [mN/m] | viscosity, 298.15 K [mPa·s] | viscosity, 303.15 K [mPa·s] | viscosity, 308.15 K [mPa·s] | viscosity, 313.15 K [mPa·s]
x1 = 0.1 | 28 | 27.6 | 27.2 | 26.9 | 9.23 | 7.19 | 6.2 | 5.25
x1 = 0.35 | 36.2 | 35.9 | 35.6 | 35.3 | 24.7 | 19.4 | 15.7 | 12.7
x1 = 0.54 | 42.6 | 42.3 | 42 | 41.7 | 38.2 | 29.9 | 24.1 | 19.8
x1 = 0.661 | 46.7 | 46.4 | 46.1 | 45.8 | 47.7 | 37.3 | 30 | 24.7
x1 = 0.79 | 51.1 | 50.8 | 50.5 | 50.3 | 58.9 | 46.5 | 37.5 | 30.8
x1 = 0.931 | 56.1 | 55.8 | 55.5 | 55.2 | 71.8 | 57.1 | 46 | 37.8
x1 = 1 | 58.5 | 58.2 | 57.9 | 57.6 | 78 | 61.9 | 49.9 | 40.9

COS(=O)(=O)[O-].Cn1cc[n+](C)c1 [1,3-dimethylimidazolium methylsulfate] + CCCCO
Conditions | surface tension liquid-gas, 298.15 K [mN/m] | surface tension liquid-gas, 303.15 K [mN/m] | surface tension liquid-gas, 308.15 K [mN/m] | surface tension liquid-gas, 313.15 K [mN/m] | viscosity, 298.15 K [mPa·s] | viscosity, 303.15 K [mPa·s] | viscosity, 308.15 K [mPa·s] | viscosity, 313.15 K [mPa·s]
x1 = 0.063 | 26 | 25.6 | 25.2 | 24.8 | 5.34 | 4.58 | 3.86 | 3.2
x1 = 0.221 | 31.2 | 30.9 | 30.6 | 30.2 | 13.5 | 10.5 | 8.53 | 7.18
x1 = 0.432 | 38.3 | 38.1 | 37.8 | 37.5 | 26.3 | 20.2 | 16.1 | 13.6
x1 = 0.64 | 45.5 | 45.3 | 45 | 44.7 | 41.4 | 32.6 | 26.1 | 21.9
x1 = 0.781 | 50.5 | 50.3 | 50 | 49.7 | 54 | 43.3 | 34.8 | 29
x1 = 0.927 | 55.8 | 55.5 | 55.2 | 55 | 69.7 | 55.5 | 45 | 37
x1 = 1 | 58.5 | 58.2 | 57.9 | 57.6 | 78 | 61.9 | 49.9 | 40.9

COS(=O)(=O)[O-].Cn1cc[n+](C)c1 [1,3-dimethylimidazolium methylsulfate] + CCCO
Conditions | surface tension liquid-gas, 298.15 K [mN/m] | surface tension liquid-gas, 303.15 K [mN/m] | surface tension liquid-gas, 308.15 K [mN/m] | surface tension liquid-gas, 313.15 K [mN/m] | viscosity, 298.15 K [mPa·s] | viscosity, 303.15 K [mPa·s] | viscosity, 308.15 K [mPa·s] | viscosity, 313.15 K [mPa·s]
x1 = 0.039 | 24.5 | 24 | 23.6 | 23.2 | 3.15 | 2.97 | 2.53 | 2.2
x1 = 0.208 | 30.1 | 29.8 | 29.4 | 29.1 | 10.7 | 8.55 | 6.76 | 6.05
x1 = 0.382 | 36.1 | 35.8 | 35.5 | 35.2 | 19.6 | 15.4 | 12.2 | 10.5
x1 = 0.561 | 42.3 | 42.1 | 41.8 | 41.6 | 31.3 | 25.1 | 20.1 | 16.8
x1 = 0.702 | 47.4 | 47.2 | 46.9 | 46.6 | 42.5 | 34.7 | 28.1 | 23.2
x1 = 0.912 | 55.1 | 54.9 | 54.6 | 54.3 | 65.2 | 52.9 | 42.7 | 35.3
x1 = 1 | 58.5 | 58.2 | 57.9 | 57.6 | 78 | 61.9 | 49.9 | 40.9

From the NIST ThermoML archive (doi:10.1021/acs.jced.8b00948)
